Measured values: US20220089589A1, “SMALL MOLECULE DEGRADERS OF FKBP12 VIA RECRUITMENT OF VON HIPPEL-LINDAU E3 UBIQUITIN LIGASE (VHL) E3 UBIQUITIN LIGASE, AND USES IN dTAG SYSTEMS” (DANA-FARBER CANCER INSTITUTE, INC., priority 2019, published 2022)
Entries after “also recorded” stand apart in the source; their conditions may differ.

Experiments:
Type in all cases: cell-based
CDK9 = target: T1, CDK9 (Homo sapiens, UniProt P50750); test: Immunoblotting of PATU-8902 LACZ-FKBP12^F36V clone, compound 1 and/or THAL-SNS-032 (Example 7), CDK9; conditions: indicated doses of THAL-SNS-032, 24 hrs, single agent
T1 construct: endogenous in cells; host or cells: PATU-8902 LACZ-FKBP12^F36V clone
Experimental: (§1) PATU-8902 LACZ-FKBP12^F36V clone was plated in 6-well format, allowed to adhere overnight, and treated with DMSO and indicated doses of THAL-SNS-032 and/or 500 nM compound 1 for 24 hrs. Following treatment, cells were lysed in RIPA buffer on ice for 60 minutes. Lysates were clarified by centrifugation at 20,000×g for 10 minutes at 4° C. Immunoblotting was performed to determine changes in protein levels with an Odyssey CLx Imager. The indicated antibodies were employed including HA to monitor LACZ-FKBP12^F36V degradation, CDK9 to monitor CDK9 degradation and α-TUBULIN as a loading control.

[1] = tested on: PATU-8902 LACZ-FKBP12^F36V clone; test: Anti-proliferation via CellTiter-Glo, PATU-8902 LACZ-FKBP12^F36V control clone (Example 12); conditions: 0.000063-2 μM, 72 hrs
Experimental: (§2) PATU-8902 LACZ-FKBP12^F36V or FKBP12^F36V-KRAS^G12V; KRAS^−/− clones were plated in 384-well format, allowed to adhere overnight, and treated with various dTAG molecules from compound stock plates using a JANUS® Workstation pin tool for 72 hrs. To measure cell viability, Cell Tilter-Glo® was added to wells for 15 minutes at r.t. and luminescence was measured on an EnVision™ 2104 Multilabel Plate Reader.

[2] = tested on: PATU-8902 LACZ-FKBP12^F36V clone; test: Cell transformation by growth in ultra-low attachment conditions, PATU-8902 LACZ-FKBP12^F36V control clone (Example 13); conditions: 0.000063-2 μM, 120 hrs
Experimental: (§3) PATU-8902 LACZ-FKBP12^F36V or FKBP12^F36V-KRAS^G12V; KRAS^−/− clones were plated in 384-well format in ultra-low attachment conditions, allowed to form 3D-spheroids overnight, and treated with various dTAG molecules from compound stock plates using a JANUS® Workstation pin tool for 120 hrs. To measure cell transformation, Cell Tilter-Glo® was added to wells for 15 minutes at room temperature and luminescence was measured on an EnVision™ 2104 Multilabel Plate Reader.

FKBP12^F36V-KRAS^G12V [3] = test: Immunoblotting of PATU-8902 FKBP12^F36V-KRAS^G12V; KRAS^−/− clone with carfilzomib or MLN4924 pre-treatment (Example 9); conditions: 500 nM, 4 hrs
Experimental: PATU-8902 FKBP12^F36V-KRAS^G12V; KRAS^−/− clone was plated in 6-well format, allowed to adhere overnight, and treated with DMSO, Carflizomib (CARF) or MLN4924 (MLN) prior to treatment with DMSO or compound 1 for 4 hrs. Following treatment, cells were lysed in RIPA buffer on ice for 60 minutes. Lysates were clarified by centrifugation at 20,000×g for 10 minutes at 4° C. Immunoblotting was performed to determine changes in protein levels with an Odyssey CLx Imager. The indicated antibodies were employed including HA to monitor FKBP12^F36V-KRAS^G12V degradation and α-TUBULIN as a loading control.

FKBP12^F36V-KRAS^G12V [4] = test: Immunoblotting of 293T^WT FKBP12^F36V-KRAS^G12V cells; conditions: 50 or 500 nM, 24 hrs
Experimental: (§4) 293T^WT or 293T^VHL−/− FKBP12^F36V-KRAS^G12V cells were plated in 6-well format, allowed to adhere overnight, and treated with 50 nM and 500 nM dTAG molecules for 24 hrs. Following treatment, cells were lysed in RIPA buffer on ice for 60 minutes. Lysates were clarified by centrifugation at 20,000×g for 10 minutes at 4° C. Immunoblotting was performed to determine changes in protein levels with an Odyssey CLx Imager. The indicated antibodies were employed including HA to monitor FKBP12^F36V-KRAS^G12V degradation and α-TUBULIN as a loading control.

FKBP12^F36V-EWS/FLI = test: Immunoblotting of EWS502 FKBP12^F36V-EWS/FLI; EWS/FLI^−/− cells; conditions: dTAG-13 10-5000 nM, compound 1 50-5000 nM, 24 hrs, EWS502 cells
Experimental: (§5) EWS502 FKBP12^F36V-GFP and FKBP12^F36V-EWS/FLI; EWS/FLP^−/− cells were plated in 6-well format, allowed to adhere overnight, and treated with (10-5000 nM) dTAG-13 or (50-5000 nM) compound 1 for 24 hrs. Following treatment, cells were lysed in Cell Lysis Buffer (Cell Signaling Technology®) on ice for 60 minutes. Lysates were clarified by centrifugation at 20,000×g for 10 minutes at 4° C. Immunoblotting was performed to determine changes in protein levels upon incubation with the appropriate horseradish peroxidase-conjugated secondary antibodies. The indicated antibodies were employed including HA to monitor FKBP12^F36V-GFP or FKBP12^F36V-EWS/FLI degradation and Vinculin as a loading control.

[5] = tested on: PATU-8902 LACZ-FKBP12^F36V clone; test: Anti-proliferation via CellTiter-Glo, PATU-8902 LACZ-FKBP12^F36V control clone (Example 11); conditions: 0.00063-20 μM, 72 hrs
Experimental: (§6) PATU-8902 LACZ-FKBP12^F36V or FKBP12^F36V-KRAS^G12V; KRAS^−/− clones were plated in 384-well format, allowed to adhere overnight, and treated with various dTAG molecules from compound stock plates using a JANUS® Workstation pin tool for 72 hrs. To measure cell viability, CellTilter-Glo® was added to wells for 15 minutes at r.t. and luminescence was measured on an EnVision™ 2104 Multilabel Plate Reader.

pERK = test: Immunoblotting of PATU-8902 FKBP12^F36V-KRAS^G12V; KRAS^−/− clone (Example 8), ERK signaling; conditions: 50 or 500 nM, 4 hrs
Experimental: as §4, with “PATU-8902 FKBP12^F36V-KRAS^G12V; KRAS^−/− clone was” for “293T^WT or 293T^VHL−/− FKBP12^F36V-KRAS^G12V cells were”, “4” for “24”, “degradation, total and phosphorylated ERK to evaluate changes in ERK signaling, total and phosphorylated AKT to evaluate changes in AKT signaling” for “degradation”

[6] = tested on: PATU-8902 FKBP12^F36V-KRAS^G12V; KRAS^−/− clone; test: Cell transformation by growth in ultra-low attachment conditions, PATU-8902 FKBP12^F36V-KRAS^G12V; KRAS^−/− clone (Example 13); conditions: 0.000063-2 μM, 120 hrs
Experimental: as §3

FKBP12^F36V-KRAS^G12V [7] = test: Immunoblotting of PATU-8902 FKBP12^F36V-KRAS^G12V; KRAS^−/− clone (Example 8), HA; conditions: 50 or 500 nM, 4 hrs
Experimental: as §4, with “PATU-8902 FKBP12^F36V-KRAS^G12V; KRAS^−/− clone was” for “293T^WT or 293T^VHL−/− FKBP12^F36V-KRAS^G12V cells were”, “4” for “24”, “degradation, total and phosphorylated ERK to evaluate changes in ERK signaling, total and phosphorylated AKT to evaluate changes in AKT signaling” for “degradation”

FKBP12^F36V-KRAS^G12V [8] = test: Immunoblotting of 293T^VHL−/− FKBP12^F36V-KRAS^G12V cells; conditions: 50 or 500 nM, 24 hrs
Experimental: as §4

LACZ-FKBP12^F36V [9] = test: Immunoblotting of PATU-8902 LACZ-FKBP12^F36V clone (Example 6); conditions: 50 or 500 nM, 4 hrs
Experimental: (§7) PATU-8902 LACZ-FKBP12^F36V clone was plated in 6-well format, allowed to adhere overnight, and treated with 50 nM and 500 nM dTAG molecules for 4 hrs. Following treatment, cells were lysed in RIPA buffer on ice for 60 minutes. Lysates were clarified by centrifugation at 20,000×g for 10 minutes at 4° C. Immunoblotting was performed to determine changes in protein levels with an Odyssey CLx Imager. The indicated antibodies were employed including HA (hemagglutinin) to monitor LACZ-FKBP12^F36V degradation and α-TUBULIN as a loading control.

[10] = tested on: PATU-8902 FKBP12^F36V-KRAS^G12V; KRAS^−/− clone; test: Anti-proliferation via CellTiter-Glo, PATU-8902 FKBP12^F36V-KRAS^G12V; KRAS^−/− clone (Example 11); conditions: 0.00063-20 μM, 72 hrs
Experimental: as §6

FKBP12^F36V-GFP = test: Immunoblotting of EWS502 FKBP12^F36V-GFP cells; conditions: dTAG-13 10-5000 nM, compound 1 50-5000 nM, 24 hrs
Experimental: as §5

pAKT = test: Immunoblotting of PATU-8902 FKBP12^F36V-KRAS^G12V; KRAS^−/− clone (Example 8), AKT signaling; conditions: 50 or 500 nM, 4 hrs
Experimental: as §7, with “FKBP12^F36V-KRAS^G12V; KRAS^−/−” for “LACZ-FKBP12^F36V”, “HA” for “HA (hemagglutinin)”, “FKBP12^F36V-KRAS^G12V degradation, total and phosphorylated ERK to evaluate changes in ERK signaling, total and phosphorylated AKT to evaluate changes in AKT signaling” for “LACZ-FKBP12^F36V degradation”

LACZ-FKBP12^F36V [11] = test: Immunoblotting of PATU-8902 LACZ-FKBP12^F36V clone, compound 1 and/or THAL-SNS-032 (Example 7), HA; conditions: 500 nM compound 1, 24 hrs, single agent
Experimental: as §1

[12] = tested on: PATU-8902 FKBP12^F36V-KRAS^G12V; KRAS^−/− clone; test: Anti-proliferation via CellTiter-Glo, PATU-8902 FKBP12^F36V-KRAS^G12V; KRAS^−/− clone (Example 12); conditions: 0.000063-2 μM, 72 hrs
Experimental: as §2

Row | Structure (SMILES) | degradation of CDK9 (immunoblot) (CDK9) | anti-proliferative effects on LACZ-FKBP12^F36V control clone [1] | effects on cell transformation of LACZ-FKBP12^F36V control clone [2] | degradation of FKBP12^F36V-KRAS^G12V (immunoblot) (FKBP12^F36V-KRAS^G12V [3]; DMSO pre-treatment) | degradation of FKBP12^F36V-KRAS^G12V after pre-treatment with Nedd8 activating enzyme inhibitor MLN4924 (MLN) (FKBP12^F36V-KRAS^G12V [3]; MLN4924 pre-treatment) | degradation of FKBP12^F36V-KRAS^G12V after pre-treatment with proteasome-inhibitor carfilzomib (CARF) (FKBP12^F36V-KRAS^G12V [3]; carfilzomib pre-treatment) | degradation of FKBP12^F36V-KRAS^G12V in 293T^WT cells (immunoblot) (FKBP12^F36V-KRAS^G12V [4]) | degradation of FKBP12^F36V-EWS/FLI (immunoblot) (FKBP12^F36V-EWS/FLI) | anti-proliferative effects on LACZ-FKBP12^F36V control clone [5] | pERK levels (immunoblot) (pERK) | loss of cell transformation (3D-spheroids, % DMSO control) [6] | degradation of FKBP12^F36V-KRAS^G12V (immunoblot) (FKBP12^F36V-KRAS^G12V [7]) | degradation of FKBP12^F36V-KRAS^G12V in 293T^VHL−/− cells (immunoblot) (FKBP12^F36V-KRAS^G12V [8]) | degradation of LACZ-FKBP12^F36V (immunoblot) (LACZ-FKBP12^F36V [9]) | anti-proliferative effects / loss of cell viability (% DMSO control) [10] | degradation of FKBP12^F36V-GFP (immunoblot) (FKBP12^F36V-GFP) | pAKT levels (immunoblot) (pAKT) | degradation of LACZ-FKBP12^F36V (immunoblot) (LACZ-FKBP12^F36V [11]) | anti-proliferative effects / loss of cell viability (% DMSO control) [12]
1 | CC(C)(C)c1cnc(CSc2cnc(NC(=O)C3CCN(CC(=O)NCCOCCOCCOCCNc4cccc5c4C(=O)N(C4CCC(=O)NC4=O)C5=O)CC3)s2)o1 (stereo not shown) [THAL-SNS-032] | potent degradation | – | – | – | – | – | – | – | – | – | – | – | – | – | – | – | – | – | –
2 | CC[C@H](C(=O)N1CCCC[C@H]1C(=O)O[C@H](CCc1ccc(OC)c(OC)c1)c1ccccc1OCC(=O)NCCCCCCC(=O)N[C@H](C(=O)N1C[C@H](O)C[C@H]1C(=O)N[C@@H](C)c1ccc(-c2scnc2C)cc1)C(C)(C)C)c1cc(OC)c(OC)c(OC)c1 [Compound 1, (R)-3-(3,4-dimethoxyphenyl)-1-(2-(2-((7-(((S)-1-((2S,4R)-4-hydroxy-2-(((S)-1-(4-(4-methylthiazol-5-yl)phenyl)ethyl)carbamoyl)pyrrolidin-1-yl)-3,3-dimethyl-1-oxobutan-2-yl)amino)-7-oxoheptyl)amino)-2-oxoethoxy)phenyl)propyl (S)-1-((S)-2-(3,4,5-trimethoxyphenyl)butanoyl)piperidine-2-carboxylate] | – | limited effects | limited effects | potent degradation | rescued | rescued | potent degradation | potent degradation | limited effects | pronounced diminished levels | Effective loss of viability; also recorded: potent loss of cell transformation | potent degradation | not and did not degrade | rapid degradation; also recorded: potent degradation | Effective loss of viability; also recorded: potent anti-proliferative effects | Degradation of GFP (control) is observed; also recorded: potent degradation | pronounced diminished levels | potent degradation | Effective loss of viability; also recorded: potent anti-proliferative effects
